pEC50: −log10 of the molar value.
Tested on: HCV 1b-377-neo replicon cells
Assay: HCV Replicon assay, HCV 1b-377-neo replicon cells
Type: cell-based, HCV 1b genotype
Details: Hepatitis C virus, Table 2, read-out: Range (EC50 against HCV 1b)

## COC(=O)N[C@@H](C(=O)N1CCC[C@H]1c1nc(-c2cnc(-c3ccc(-c4cnc([C@@H]5CCCN5C(=O)[C@H](NC(=O)OC)c5ccccc5)[nH]4)c(F)c3)nc2)c[nH]1)c1ccccc1 [Example D69, methyl ((1R)-2-((2S)-2-(5-(2-(3-fluoro-4-(2-((2S)-1-((2R)-2-((methoxycarbonyl)amino)-2-phenylacetyl)-2-pyrrolidinyl)-1H-imidazol-5-yl)phenyl)-5-pyrimidinyl)-1H-imidazol-2-yl)-1-pyrrolidinyl)-2-oxo-1-phenylethyl) carbamate]
  pEC50: 9.00 to 12.00

## COC(=O)N[C@H](C(=O)N1CCC[C@H]1c1nc(-c2cnc(-c3ccc(-c4cnc([C@@H]5CCCN5C(=O)[C@@H](NC(=O)OC)[C@@H](C)OC)[nH]4)c(F)c3)nc2)c[nH]1)[C@@H](C)OC [Example D70, methyl ((1S,2R)-1-(((2S)-2-(5-(2-fluoro-4-(5-(2-((2S)-1-(N-(methoxycarbonyl)-O-methyl-L-threonyl)-2-pyrrolidinyl)-1H-imidazol-5-yl)-2-pyrimidinyl)phenyl)-1H-imidazol-2-yl)-1-pyrrolidinyl)carbonyl)-2-methoxypropyl) carbamate]
  pEC50: 9.00 to 12.00

## COC(=O)N[C@@H](C)C(=O)N1CCC[C@H]1c1nc(-c2cnc(-c3ccc(-c4cnc([C@@H]5CCCN5C(=O)[C@H](C)NC(=O)OC)[nH]4)cc3)nc2)c[nH]1 [Example D73, methyl ((1S)-2-((2S)-2-(5-(4-(5-(2-((2S)-1-(N-(methoxycarbonyl)-L-alanyl)-2-pyrrolidinyl)-1H-imidazol-5-yl)-2-pyrimi-dinyl)phenyl)-1H-imidazol-2-yl)-1-pyrrolidinyl)-1-methyl-2-oxoethyl)carbamate]
  pEC50: 9.00 to 12.00

## COC(=O)N[C@H](C(=O)N1CCC[C@H]1c1nc(-c2cnc(-c3ccc(-c4cnc([C@@H]5CCCN5C(=O)[C@@H](NC(=O)OC)C(C)C)[nH]4)cc3)nc2)c[nH]1)C(C)C [Example D74, methyl ((1S)-1-(((2S)-2-(5-(2-(4-(2-((2S)-1-((2S)-2-((methoxycarbonyl)amino)-3-methylbutanoyl)-2-pyrrolidinyl)-1H-imidazol-5-yl)phenyl)-5-pyrimidinyl)-1H-imidazol-2-yl)-1-pyrrolidinyl)carbonyl)-2-methylpropyl) carbamate]
  pEC50: 9.00 to 12.00

## COC(=O)N[C@H](C(=O)N1CCC[C@H]1c1nc(-c2cnc(-c3ccc(-c4cnc([C@@H]5CCCN5C(=O)[C@@H](NC(=O)OC)C5CC5)[nH]4)cc3)nc2)c[nH]1)C1CC1 [Example D75, methyl ((1S)-1-cyclopropyl-2-((2S)-2-(5-(2-(4-(2-((2S)-1-((2S)-2-cyclopropyl-2-((methoxycarbonyl)amino)acetyl)-2-pyrrolidinyl)-1H-imidazol-5-yl)phenyl)-5-pyrimidinyl)-1H-imidazol-2-yl)-1-pyrrolidinyl)-2-oxoethyl)carbamate]
  pEC50: 9.00 to 12.00

## CCN(CC)[C@@H](C(=O)N1CCC[C@H]1c1ncc(-c2ccc(-c3ncc(-c4c[nH]c([C@@H]5CCCN5C(=O)[C@@H](NC(=O)OC)C(C)C)n4)cn3)cc2)[nH]1)c1ccccc1 [Example D76, methyl ((1S)-1-(((2S)-2-(5-(2-(4-(2-((2S)-1-((2R)-2-(diethylamino)-2-phenylacetyl)-2-pyrrolidinyl)-1H-imidazol-5-yl)phenyl)-5-pyrimidinyl)-1H-imidazol-2-yl)-1-pyrrolidinyl)carbonyl)-2-methylpropyl) carbamate]
  pEC50: 9.00 to 12.00

## CCN(CC)[C@@H](C(=O)N1CCC[C@H]1c1ncc(-c2ccc(-c3ncc(-c4c[nH]c([C@@H]5CCCN5C(=O)[C@H](C)NC(=O)OC)n4)cn3)cc2)[nH]1)c1ccccc1 [Example D77, methyl ((1S)-2-((2S)-2-(5-(2-(4-(2-((2S)-1-((2R)-2-(diethylamino)-2-phenylacetyl)-2-pyrrolidinyl)-1H-imidazol-5-yl)phenyl)-5-pyrimidinyl)-1H-imidazol-2-yl)-1-pyrrolidinyl)-1-methyl-2-oxoethyl)carbamate]
  pEC50: 9.00 to 12.00

## COC(=O)N[C@H](C(=O)N1CCCC1c1ncc(-c2cc(C)c(-c3c(C)cc(-c4cnc([C@@H]5CCCN5C(=O)[C@@H](NC(=O)OC)C(C)C)[nH]4)cc3C)c(C)c2)[nH]1)C(C)C (stereo partly shown) [Example F71]
  pEC50: 9.00 to 12.00

## COC(=O)N[C@@H](C)C(=O)N(C)[C@@H](C)c1ncc(-c2ccc(-c3ccc(-c4[nH]c([C@@H]5CCCN5C(=O)[C@H](C)NC(=O)OC)nc4C(F)(F)F)cc3)cc2)[nH]1 [Example J42.a, methyl ((1S)-2-((2S)-2-(5-(4′-(2-((1S)-1-((N-(methoxycarbonyl)-L-alanyl)(methyl)amino)ethyl)-1H-imidazol-5-yl)-4-biphenylyl)-4-(trifluoromethyl)-1H-imidazol-2-yl)-1-pyrrolidinyl)-1-methyl-2-oxoethyl)carbamate]
  pEC50: 9.00 to 12.00

## COC(=O)N[C@@H](C(=O)N1CCC[C@H]1c1ncc(-c2cnc(-c3ccc(-c4[nH]c([C@@H]5CCCN5C(=O)[C@H](NC(=O)OC)c5ccccc5)nc4C(F)(F)F)cc3)nc2)[nH]1)c1ccccc1 [Example J46, methyl ((1R)-2-((2S)-2-(5-(4-(5-(2-((2S)-1-((2R)-2-((methoxycarbonyl)amino)-2-phenylacetyl)-2-pyrrolidinyl)-1H-imidazol-5-yl)-2-pyrimidinyl)phenyl)-4-(trifluoromethyl)-1H-imidazol-2-yl)-1-pyrrolidinyl)-2-oxo-1-phenylethyl) carbamate]
  pEC50: 9.00 to 12.00

## CCN(CC)[C@@H](C(=O)N1CCC[C@H]1c1ncc(-c2cnc(-c3ccc(-c4[nH]c([C@@H]5CCCN5C(=O)[C@@H](c5ccccc5)N(CC)CC)nc4C(F)(F)F)cc3)nc2)[nH]1)c1ccccc1 [Example J47, (1R)-2-((2S)-2-(5-(4-(5-(2-((2S)-1-((2R)-2-(diethylamino)-2-phenylacetyl)-2-pyrrolidinyl)-1H-imidazol-5-yl)-2-pyrimidinyl)phenyl)-4-(trifluoromethyl)-1H-imidazol-2-yl)-1-pyrrolidinyl)-N,N-diethyl-2-oxo-1-phenylethanamine]
  pEC50: 9.00 to 12.00

## COC(=O)N[C@H](C(=O)N1CCC[C@H]1c1ncc(-c2cnc(-c3ccc(-c4[nH]c([C@@H]5CCCN5C(=O)[C@@H](NC(=O)OC)C(C)C)nc4C(F)(F)F)cc3)nc2)[nH]1)C(C)C [Example J48, methyl ((1S)-1-(((2S)-2-(5-(2-(4-(2-((2S)-1-((2S)-2-((methoxycarbonyl)amino)-3-methylbutanoyl)-2-pyrrolidinyl)-4-(trifluoromethyl)-1H-imidazol-5-yl)phenyl)-5-pyrimidinyl)-1H-imidazol-2-yl)-1-pyrrolidinyl)carbonyl)-2-methylpropyl) carbamate]
  pEC50: 9.00 to 12.00

## COC(=O)N[C@H](C(=O)N1CCC[C@H]1c1ncc(-c2cnc(-c3ccc(-c4[nH]c([C@@H]5CCCN5C(=O)[C@@H](NC(=O)OC)C5CC5)nc4C(F)(F)F)cc3)nc2)[nH]1)C1CC1 [Example J49, methyl ((1S)-1-cyclopropyl-2-((2S)-2-(5-(4-(5-(2-((2S)-1-((2S)-2-cyclopropyl-2-((methoxycarbonyl)amino)acetyl)-2-pyrrolidinyl)-1H-imidazol-5-yl)-2-pyrimidinyl)phenyl)-4-(trifluoromethyl)-1H-imidazol-2-yl)-1-pyrrolidinyl)-2-oxoethyl)carbamate]
  pEC50: 9.00 to 12.00

## COC(=O)N[C@@H](C)C(=O)N1CCC[C@H]1c1ncc(-c2cnc(-c3ccc(-c4[nH]c([C@@H]5CCCN5C(=O)[C@H](C)NC(=O)OC)nc4C(F)(F)F)cc3)nc2)[nH]1 [Example J50, methyl ((1S)-2-((2S)-2-(5-(4-(5-(2-((2S)-1-(N-(methoxycarbonyl)-L-alanyl)-2-pyrrolidinyl)-1H-imidazol-5-yl)-2-pyrimidinyl)phenyl)-4-(trifluoromethyl)-1H-imidazol-2-yl)-1-pyrrolidinyl)-1-methyl-2-oxoethyl)carbamate]
  pEC50: 9.00 to 12.00

## COC(=O)N[C@H](C(=O)N1CCC[C@H]1c1ncc(-c2ccc(-c3ccc(-c4cnc([C@@H]5CCCN5C(=O)[C@@H](NC(=O)OC)C(C)C)[nH]4)cc3C(=O)O)cc2)[nH]1)C(C)C [Example M114, 4,4′-bis(2-((2S)-1-(N-(methoxycarbonyl)-L-valyl)-2-pyrrolidinyl)-1H-imidazol-5-yl)-2-biphenylcarboxylic acid]
  pEC50: 5.00 to 6.00

## COC(=O)N[C@H](C(=O)N1CCC[C@H]1c1ncc(-c2ccc(-c3ccc(-c4cnc([C@@H]5CCCN5C(=O)[C@@H](NC(=O)OC)C(C)C)[nH]4)cc3C(N)=O)cc2)[nH]1)C(C)C [Example M118, methyl((1S)-1-(((2S)-2-(5-(2′-carbamoyl-4′-(2-((2S)-1-((2S)-2-((methoxycarbonyl)amino)-3-methylbutanoyl)-2-pyrrolidinyl)-1H-imidazol-5-yl)-4-biphenylyl)-1H-imidazol-2-yl)-1-pyrrolidinyl)carbonyl)-2-methylpropyl)carbamate]
  pEC50: 5.00 to 6.00

## COC(=O)N[C@H](C(=O)N1CCC[C@H]1c1ncc(-c2ccc(-c3ccc(-c4cnc([C@@H]5CCCN5C(=O)[C@@H](NC(=O)OC)C(C)C)[nH]4)cc3CO)cc2)[nH]1)C(C)C [Example M119, methyl((1S)-1-(((2S)-2-(5-(2-(hydroxymethyl)-4′-(2-((2S)-1-((2S)-2-((methoxycarbonyl)amino)-3-methylbutanoyl)-2-pyrrolidinyl)-1H-imidazol-5-yl)-4-biphenylyl)-1H-imidazol-2-yl)-1-pyrrolidinyl)carbonyl)-2-methylpropyl)carbamate]
  pEC50: 6.00 to 7.00

## COC(=O)N[C@H](C(=O)N1CCC[C@H]1c1ncc(-c2ccc(-c3ccc(-c4cnc([C@@H]5CCCN5C(=O)[C@@H](NC(=O)OC)C(C)C)[nH]4)cc3CN(C)C)cc2)[nH]1)C(C)C [Example M120, methyl((1S)-1-(((2S)-2-(5-(2-((dimethylamino)methyl)-4′-(2-((2S)-1-((2S)-2-((methoxycarbonyl)amino)-3-methylbutanoyl)-2-pyrrolidinyl)-1H-imidazol-5-yl)-4-biphenylyl)-1H-imidazol-2-yl)-1-pyrrolidinyl)carbonyl)-2-methylpropyl)carbamate]
  pEC50: 6.00 to 7.00

## COC(=O)N[C@@H](C(=O)N1CCC[C@H]1c1ncc(-c2ccc(-c3ccc(-c4cnc([C@@H]5CCCN5C(=O)[C@H](NC(=O)OC)c5ccccc5)[nH]4)cc3CN(C)C)cc2)[nH]1)c1ccccc1 [Example M121, dimethyl((2-((dimethylamino)methyl)-4,4′-biphenyldiyl)bis(1H-imidazole-5,2-diyl(2S)-2,1-pyrrolidinediyl((1R)-2-oxo-1-phenyl-2,1-ethanediyl)))biscarbamate]
  pEC50: 6.00 to 7.00
